From patent publication US20020165236A1, “Compounds for the treatment of protozoal diseases” (priority 2001, published 2002)

The compounds below were run on multiresistant Dd2 strain of Plasmodium falciparum (assay: antiplasmodial action, [8-3H]hypoxanthine incorporation, Dd2 strain). Settings: read-out: in vitro antiplasmodial activity (IC50 value class).
Format: cell-based
Description: For the determination of the antiplasmodial action of the compounds, the multiresistant Dd2 strain of Plasmodium falciparum was used. The incorporation of [8-^3H]hypoxanthine into the parasitic nucleic acids was measured. The plasmodia were incubated at 0.3% parasitaemia and an erythrocyte haematocrit of 2.5% in the presence of different concentrations of the compounds in a final volume of 200-μl. The medium employed was RPMI 1640 which contained 10% of heat-treated human serum and 3 mg/l of gentamycin. in the incubations, the concentrations of the compounds varied from 0.3 to 100 μM. After 48 h, each batch was treated with 50 µl of […] (1 mCi/ml) and incubated for a further 18 h. The cells were filtered off, washed and suspended in 20 μl of scintillation fluid. The radioactive hypoxanthine absorbed by the parasites was then quantified using a scintillation counter.
The results were presented graphically and the IC50 value was determined using a fitting function. The value IC50, the ‘inhibition constant’, indicates the value in μMol/1 at which 50% inhibition occurs.

CSc1ccc(NC(=O)Nc2cccc(C(=N)NN)c2)cc1 [Compound 1] and CSc1ccc(NC(=O)Nc2cccc(C(=N)N)c2)cc1 [Compound 7] fall in the same range of IC50: 1 to 10 µM for the first, 1 to 10 µM for the second.

N=C(N)c1ccc(NC(=O)Nc2cccc(C(F)(F)F)c2)cc1 [Compound 2] and N=C(N)c1cccc(NC(=O)Nc2ccc(C(F)(F)F)cc2)c1 [Compound 8] fall in the same range of IC50: 1 to 10 µM for the first, 1 to 10 µM for the second.

N=C(N)c1cccc(NC(=O)Nc2ccccc2Br)c1 [Compound 3] and N#Cc1ccccc1NC(=O)Nc1cccc(C(=N)N)c1 [Compound 4] fall in the same range of IC50: 1 to 10 µM for the first, 1 to 10 µM for the second.

Compared with CS(=O)(=O)c1ccc2nc(NC(=O)Nc3cccc(C(=N)N)c3)sc2c1 [Compound 6], N=C(N)c1cccc(NC(=O)Nc2ccc(S(N)(=O)=O)cc2[N+](=O)[O-])c1 [Compound 28] is lower in IC50: 10 to 100 µM for the first, 1 to 10 µM for the second. The second is the more potent here.

Compared with N=C(N)c1cccc(NC(=O)Nc2ccc(Cl)c(C(F)(F)F)c2)c1 [Compound 9], N=C(N)c1cccc(NC(=O)Nc2ccc(C(F)(F)F)cc2Br)c1 [Compound 11] is higher in IC50: < 1 µM for the first, 1 to 10 µM for the second. The first is the more potent here.

COC(=O)c1cc(NC(=O)Nc2cccc(C(=N)N)c2)cc(C(F)(F)F)c1 [Compound 12] and COC(=O)c1cc(NC(=O)Nc2ccc(C(=N)N)cc2)cc(C(F)(F)F)c1 [Compound 16] fall in the same range of IC50: 1 to 10 µM for the first, 1 to 10 µM for the second.

N=C(N)c1cccc(NC(=O)Nc2ccc(Br)cc2Br)c1 [Compound 14] and N=C(N)c1cccc(NC(=O)Nc2ccc(S(N)(=O)=O)cc2)c1 [Compound 30] fall in the same range of IC50: 1 to 10 µM for the first, 1 to 10 µM for the second.

First: CN1C(=O)c2ccc(NC(=O)Nc3cccc(C(=N)N)c3)cc2C1=O [Compound 17]
Second: CC(=O)Nc1cccc(NC(=O)Nc2cccc(C(=N)N)c2)c1 [Compound 66]
The IC50 of the first is higher: 10 to 100 µM for the first, 1 to 10 µM for the second.

N=C(N)c1cccc(NC(=O)Nc2ccc(S(=O)(=O)N3CCc4ccccc4C3)cc2)c1 [Compound 20] and N=C(N)c1cccc(NC(=O)Nc2ccc(S(=O)(=O)Nc3ccccc3)cc2)c1 [Compound 26] fall in the same range of IC50: 1 to 10 µM for the first, 1 to 10 µM for the second.

First: CCCCNS(=O)(=O)c1ccc(NC(=O)Nc2cccc(C(=N)N)c2)cc1 [Compound 21]
Second: N=C(N)c1cccc(NC(=O)Nc2ccc(S(=O)(=O)NCc3ccccc3)cc2)c1 [Compound 33, 3-[3-(4-Benzylsulfamoyl-phenyl)-ureido]-benzamidine]
The IC50 of the first is higher: 1 to 10 µM for the first, < 1 µM for the second. The second is the more potent here.

First: N=C(N)c1cccc(NC(=O)Nc2ccc(S(=O)(=O)NC3C4CC5CC(C4)CC3C5)cc2)c1 (centres unmarked) [Compound 22]
Second: N=C(N)c1cccc(NC(=O)Nc2ccc(S(=O)(=O)NCc3cccc(F)c3)cc2)c1 [Compound 36]
The IC50 of the first is higher: 10 to 100 µM for the first, < 1 µM for the second. The second is the more potent here.

Compared with N=C(N)c1cccc(NC(=O)Nc2ccc(S(=O)(=O)NC(c3ccccc3)c3ccccc3)cc2)c1 [Compound 23, 3-{3-[4-(benzhydrylsulfamoyl)-phenyl]-ureido}-benzamidine], CC(NS(=O)(=O)c1ccc(NC(=O)Nc2cccc(C(=N)N)c2)cc1)c1ccc(F)cc1 (centres unmarked) [Compound 48] is higher in IC50: < 1 µM for the first, 1 to 10 µM for the second.

N=C(N)c1cccc(NC(=O)Nc2ccc(S(=O)(=O)Nc3ccc(-c4ccc(N)cc4[N+](=O)[O-])cc3)cc2)c1 [Compound 27] and N=C(N)c1cccc(NC(=O)Nc2ccc(S(=O)(=O)Nc3ccc4cccnc4c3)cc2)c1 [Compound 29] fall in the same range of IC50: 1 to 10 µM for the first, 1 to 10 µM for the second.

First: N=C(N)c1cccc(NC(=O)Nc2ccc(NS(=O)(=O)c3ccccc3)c(O)c2)c1 [Compound 31]
Second: Cc1ccc(S(=O)(=O)Nc2cccc(NC(=O)Nc3cccc(C(=N)N)c3)c2)cc1 [Compound 32]
The IC50 of the first is lower: 1 to 10 µM for the first, 10 to 100 µM for the second. The first is the more potent here.

N=C(N)c1cccc(NC(=O)Nc2ccc(S(=O)(=O)NCc3ccc(S(N)(=O)=O)cc3)cc2)c1 [Compound 35, 3-{3-[4-(4-sulfamoyl-benzylsulfamoyl)-phenyl]-ureido}-benzamidine] and N=C(N)c1ccc(NC(=O)Nc2ccc(S(=O)(=O)NCc3ccc(S(N)(=O)=O)cc3)cc2)cc1 [Compound 51, 4-{3-[4-(4-sulfamoylbenzylsulfamoyl)-phenyl]-ureido}-benzamidine] cannot be ordered by IC50: < 1 µM for the first, < 1 µM for the second.

Compared with N=C(N)c1cccc(NC(=O)Nc2ccc(S(=O)(=O)NCc3cccc(C(F)(F)F)c3)cc2)c1 [Compound 37, 3-{3-[4-(3-trifluoromethyl-benzylsulfamoyl)-phenyl]-ureido}-benzamidine], N=C(N)c1cccc(NC(=O)Nc2ccc(S(=O)(=O)NCc3cccc(OC(F)(F)F)c3)cc2)c1 [Compound 49] is higher in IC50: < 1 µM for the first, 1 to 10 µM for the second. The first is the more potent here.

N=C(N)c1cccc(NC(=O)Nc2ccc(S(=O)(=O)NCc3ccc(C(F)(F)F)cc3)cc2)c1 [Compound 38] and N=C(N)c1cccc(NC(=O)Nc2ccc(S(=O)(=O)NCc3ccc(F)cc3)cc2)c1 [Compound 39] cannot be ordered by IC50: < 1 µM for the first, < 1 µM for the second.

N=C(N)c1cccc(NC(=O)Nc2ccc(S(=O)(=O)NCc3ccccc3F)cc2)c1 [Compound 40] and N=C(N)c1cccc(NC(=O)Nc2ccc(S(=O)(=O)NCc3cc(F)ccc3F)cc2)c1 [Compound 42] cannot be ordered by IC50: < 1 µM for the first, < 1 µM for the second.

N=C(N)c1cccc(NC(=O)Nc2ccc(S(=O)(=O)NCc3cc(F)c(F)cc3F)cc2)c1 [Compound 41] and N=C(N)c1cccc(NC(=O)Nc2ccc(S(=O)(=O)NCc3ccc(F)cc3F)cc2)c1 [Compound 43] fall in the same range of IC50: 1 to 10 µM for the first, 1 to 10 µM for the second.

First: N=C(N)c1cccc(NC(=O)Nc2ccc(S(=O)(=O)NCc3ccc(F)c(F)c3)cc2)c1 [Compound 44]
Second: N=C(N)c1cccc(NC(=O)Nc2ccc(S(=O)(=O)NCc3c(F)cccc3F)cc2)c1 [Compound 45]
The IC50 of the first is higher: 1 to 10 µM for the first, < 1 µM for the second.

First: N=C(N)c1cccc(NC(=O)Nc2ccc(S(=O)(=O)NCc3cc(F)cc(C(F)(F)F)c3)cc2)c1 [Compound 46]
Second: N=C(N)c1cccc(NC(=O)Nc2ccc(S(=O)(=O)NCc3c(F)ccc(F)c3F)cc2)c1 [Compound 47, 3-{3-[4-(2,3,6-trifluorobenzylsulfamoyl)-phenyl]-ureido}-benzamidine]
The IC50 of the first is higher: 1 to 10 µM for the first, < 1 µM for the second.

N=C(N)c1ccc(NC(=O)Nc2ccc(S(=O)(=O)NCc3cccc(F)c3)cc2)cc1 [Compound 52] and N=C(N)c1ccc(NC(=O)Nc2ccc(S(=O)(=O)NCc3ccc(F)cc3)cc2)cc1 [Compound 53] cannot be ordered by IC50: < 1 µM for the first, < 1 µM for the second.

N=C(N)c1ccc(NC(=O)Nc2ccc(S(=O)(=O)NCc3c(F)cccc3F)cc2)cc1 [Compound 54] and N=C(N)c1ccc(NC(=O)Nc2ccc(S(=O)(=O)NCc3c(F)ccc(F)c3F)cc2)cc1 [Compound 56] cannot be ordered by IC50: < 1 µM for the first, < 1 µM for the second.

N=C(N)c1ccc(NC(=O)Nc2ccc(S(=O)(=O)NCc3ccc(F)cc3F)cc2)cc1 [Compound 55] and N=C(N)c1cccc(NC(=O)Nc2ccc(S(=O)(=O)NCc3ccc([N+](=O)[O-])cc3)cc2)c1 [Compound 59] cannot be ordered by IC50: < 1 µM for the first, < 1 µM for the second.

N=C(N)c1cccc(NC(=O)Nc2cccc(S(=O)(=O)NCc3cccc(F)c3)c2)c1 [Compound 57] and N=C(N)c1cccc(NC(=O)Nc2cccc(S(=O)(=O)NCc3ccc(S(N)(=O)=O)cc3)c2)c1 [Compound 58] fall in the same range of IC50: 1 to 10 µM for the first, 1 to 10 µM for the second.

Compared with N=C(N)c1cccc(NC(=O)Nc2ccc(S(=O)(=O)NNC(=O)c3ccc(-c4ccccc4)cc3)cc2)c1 [Compound 60], N=C(N)c1cccc(NC(=O)Nc2ccc(S(=O)(=O)c3ccc([N+](=O)[O-])cc3)cc2)c1 [Compound 63, 3-{3-[4-(4-nitrobenzenesulfonyl)-phenyl]-ureido}-benzamidine] is lower in IC50: 1 to 10 µM for the first, < 1 µM for the second.

N=C(N)c1cccc(NC(=O)Nc2ccc(S(=O)(=O)c3ccc(NCCO)cc3)cc2)c1 [Compound 65] gave an IC50 of 1 to 10 µM.
